Patent US20180263860A1, “DELIVERY SYSTEMS FOR APPLICATION OF ANTIBIOTIC GEL FORMULATION” (Indiana University Research and Technology Corporation, priority 2015, published 2018)
Entries after “also recorded” stand apart in the source; their conditions may differ.

How the values were obtained:
[1] = test system: three-week old E. faecalis biofilm; assay: Biofilm disruption assay on infected dentin samples (Example 2); type: cell-based, Enterococcus faecalis; conditions: immersion for 5 minutes
Procedure: Unidentified intact human teeth were collected, stored in 0.1% thymol solution at 4° C., and used within 6 months after obtaining local Institutional Review Board approval (IRB #1409251353). A standardized radicular dentin sample (4×4×1 mm^3) was obtained from each root using a slow diamond saw (IsoMet, Buehler, Lake Bluff, Ill.) under continuous distilled water irrigation. The pulpal side of each specimen was wet-finished with silicon carbide abrasive papers (500-2400 grit, Struers, Cleveland, Ohio). The polished samples were then sonicated in deionized water for 3 minutes, washed with sterile water, wrapped individually with moist cotton pellets, placed in Whirl-pak bags (Sigma-Aldrich, St Louis, Mo.), gas sterilized with ethylene oxide, and stored at 4° C. until used. E. faecalis (ATCC 29212) was grown initially on anaerobic blood agar plates (CDC, BioMerieux, Durham, N.C.). […] Dentin samples were placed individually in separate wells of a 96-sterile well plate (Fisherbrand, Fischer Scientific) with the pulpal side facing upwards. Then, 10 μl of an overnight E. faecalis culture (10^6 CFU/mL) dispersed in 190 μL of fresh BHI-YE growth media was added to each dentin specimen. […] The CFUs/mL were quantified using an automated colony counter (Synbiosis, Inc., Frederick, Md.). Summary statistics were calculated for the log-transformed data from each group. […]

[2] = test system: stem cells from apical papillae and dental pulp stem cells; conditions: 2% CHX; recent in vitro studies; cited from earlier work

Structure (SMILES) | antibiofilm effect (log CFU/mL) ([1]; 2% CHX) | effects on survival and attachment of stem cells from apical and dental pulp [2] | antibiofilm effect (log CFU/mL) ([1]; 1.5% NaOCl)
N=C(NCCCCCCNC(=N)NC(=N)Nc1ccc(Cl)cc1)NC(=N)Nc1ccc(Cl)cc1.O=C(O)[C@H](O)[C@@H](O)[C@H](O)[C@H](O)CO.O=C(O)[C@H](O)[C@@H](O)[C@H](O)[C@H](O)CO [CHX] | significant reduction in E. faecalis biofilm; also recorded: nearly eliminate the bacterial biofilm | highly unfavorable effects | –
OCl [NaOCl, sodium hypochlorite] | – | – | significant reduction and complete eradication of E. faecalis biofilm
